pIC50, pKi: −log10 of the molar value. Read-outs that look alike come from different tables or passages of the source.
Columns and labels:
[1] = target: β-xylosidase from Thermoanaerobacterium saccharolyticum; conditions: read-out: Ki (Xyl Therm. sac.), cited from earlier work
[2] = target: human lysosomal β-glucocerebrosidase (GCase); conditions: cited from earlier work; for pIC50: compounds 10a-10b
[3] = target: T1, β-glucosidase/β-galactosidase from Agrobacterium sp. (ABG) (Agrobacterium sp., UniProt P12614); experiment: Ki determination with β-glucosidase from Agrobacterium sp. (ABG); assay type: biochemical; conditions: for pKi: 37 °C, 50 mM sodium phosphate buffer pH 7, 4-nitrophenyl glycopyranoside substrate, read-out: Ki β-Glu, ABG
T1 construct: made in house; host or cells: E. coli
T1 sequence (P12614 1-459): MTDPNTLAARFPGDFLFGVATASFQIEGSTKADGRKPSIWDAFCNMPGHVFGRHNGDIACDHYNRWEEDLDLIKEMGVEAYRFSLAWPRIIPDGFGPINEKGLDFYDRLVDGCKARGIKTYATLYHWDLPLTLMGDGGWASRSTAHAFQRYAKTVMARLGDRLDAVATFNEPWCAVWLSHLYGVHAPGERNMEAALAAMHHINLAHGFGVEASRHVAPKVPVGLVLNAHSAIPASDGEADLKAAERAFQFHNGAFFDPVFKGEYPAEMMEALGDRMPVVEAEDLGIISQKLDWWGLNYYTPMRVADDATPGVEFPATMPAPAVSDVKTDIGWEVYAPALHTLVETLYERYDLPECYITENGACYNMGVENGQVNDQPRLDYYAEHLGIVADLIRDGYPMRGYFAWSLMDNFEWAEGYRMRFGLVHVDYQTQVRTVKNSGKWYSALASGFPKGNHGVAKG
Excerpt: (§1) For the biological evaluation of the synthesized DIX derivatives 19, 23, 26, and 28, we have probed a series of standard glycoside hydrolases, including β-glucosidase from Agrobacterium sp. (ABG), β-galactosidase from E. coli, Fabrazyme (commercial recombinant human lysosomal α-galactosidase), α-glucosidase S. cerevisiae, and human β-glucocerebrosidase GCase, to investigate ligand activity as well as selectivity. […] This increase in selectivity might be explained by the fact that compounds 26 and 28 combine the advantages of both features, the ethyl group at position C-1 locking the structure in the ^1C4 conformation as well as the lipophilic substituents at the ring nitrogen. The former has been implied for favorable ligand properties and the fitting into the active site of GCase. The latter interacts with the lipophilic entrance to the active site of GCase mimicking the ceramide residue of the natural substrate glucosyl ceramide. Compounds 26 and 28 will serve as building blocks for further functionalisation as proposed.
(§2) Kinetic studies were performed at 37 °C in an appropriate buffer using a known concentration of enzyme (specific conditions depicted below). Ki determinations were performed using the corresponding 4-nitrophenyl α- or β-D-glycopyranoside as substrate. In a typical assay, the enzyme was incubated with different inhibitor concentrations for up to 5 min before initiating the reaction by the addition of substrate. The initial reaction rate was measured by monitoring the increase in absorbance at 400 nm for up to 10 min. Ki determinations were performed using at least two different substrate concentrations. For each inhibitor, a range of four-to-six inhibitor concentrations bracketing the Ki value ultimately determined was used for each substrate concentration. Dixon plots (1/v vs. [I]) were constructed to validate the use of the competitive inhibition model. The data were then fitted using non-linear regression analysis with Grafit 7.0.

[4] = target: T2, E.coli lac z β-galactosidase (Escherichia coli, UniProt P00722); experiment: Ki determination with β-galactosidase from E. coli; assay type: biochemical; conditions: 37 °C, 50 mM sodium phosphate, 1.0 mM MgCl2 pH 7, 4-nitrophenyl glycopyranoside substrate; read-out: Ki β-Gal, E. coli
T2 construct: purchased Sigma-Aldrich
T2 sequence (P00722 2-1024 limits assumed): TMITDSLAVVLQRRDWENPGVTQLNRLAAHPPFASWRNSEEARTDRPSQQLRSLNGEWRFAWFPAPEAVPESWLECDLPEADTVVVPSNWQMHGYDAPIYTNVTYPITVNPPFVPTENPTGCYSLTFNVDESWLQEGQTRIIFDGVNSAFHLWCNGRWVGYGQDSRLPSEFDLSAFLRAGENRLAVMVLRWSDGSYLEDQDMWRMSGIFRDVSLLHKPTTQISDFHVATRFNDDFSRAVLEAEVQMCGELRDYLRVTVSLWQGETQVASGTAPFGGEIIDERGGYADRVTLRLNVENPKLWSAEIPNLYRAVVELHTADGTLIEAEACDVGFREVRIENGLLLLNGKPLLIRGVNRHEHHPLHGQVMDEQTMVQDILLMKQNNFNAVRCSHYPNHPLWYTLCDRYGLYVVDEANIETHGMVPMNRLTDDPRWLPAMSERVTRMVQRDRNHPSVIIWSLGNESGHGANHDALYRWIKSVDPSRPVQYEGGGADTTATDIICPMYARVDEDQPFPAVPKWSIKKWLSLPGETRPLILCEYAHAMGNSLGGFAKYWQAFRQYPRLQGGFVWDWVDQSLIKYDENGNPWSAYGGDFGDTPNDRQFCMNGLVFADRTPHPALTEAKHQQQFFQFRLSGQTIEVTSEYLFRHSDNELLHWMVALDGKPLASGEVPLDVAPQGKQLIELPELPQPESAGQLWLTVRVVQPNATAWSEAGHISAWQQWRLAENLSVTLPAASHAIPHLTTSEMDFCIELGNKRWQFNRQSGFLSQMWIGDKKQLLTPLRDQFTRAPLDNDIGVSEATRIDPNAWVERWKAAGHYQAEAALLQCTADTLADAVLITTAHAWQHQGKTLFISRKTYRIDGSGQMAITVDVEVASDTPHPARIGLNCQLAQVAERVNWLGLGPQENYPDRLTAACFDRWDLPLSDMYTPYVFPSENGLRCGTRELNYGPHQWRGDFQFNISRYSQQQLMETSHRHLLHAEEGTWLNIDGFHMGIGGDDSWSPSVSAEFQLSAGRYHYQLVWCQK
Excerpt: as §1, §2

[5] = target: T3, Fabrazyme (commercial recombinant human lysosomal α-galactosidase) (Homo sapiens, UniProt P06280); experiment: Ki determination with Fabrazyme; assay type: biochemical; conditions: 37 °C, citrate/phosphate buffer with Triton X-100 and taurocholic acid pH 5.5, 4-nitrophenyl glycopyranoside substrate; read-out: Ki α-Gal, Fabrazyme
T3 construct: purchased Fabrazyme, a commercial product; received as a gift from Dr Lorne Clarke, University of British Columbia
T3 sequence (P06280 32-429): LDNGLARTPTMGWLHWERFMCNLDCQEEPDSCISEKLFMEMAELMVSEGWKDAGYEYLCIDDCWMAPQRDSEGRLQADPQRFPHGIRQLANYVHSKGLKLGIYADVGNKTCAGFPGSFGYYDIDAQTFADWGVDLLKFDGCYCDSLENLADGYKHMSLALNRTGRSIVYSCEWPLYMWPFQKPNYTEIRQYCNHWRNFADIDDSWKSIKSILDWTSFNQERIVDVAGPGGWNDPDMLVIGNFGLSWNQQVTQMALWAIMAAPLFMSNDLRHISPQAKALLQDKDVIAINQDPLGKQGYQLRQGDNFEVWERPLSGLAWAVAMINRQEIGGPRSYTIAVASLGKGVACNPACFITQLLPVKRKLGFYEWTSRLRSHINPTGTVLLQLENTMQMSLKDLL
Excerpt: as §1, §2

[6] = target: S. cerevisiae α-glucosidase; experiment: Ki determination with α-glucosidase S. cerevisiae; assay type: biochemical; conditions: 37 °C, 50 mM sodium phosphate buffer pH 7, PNP α-Glc substrate; read-out: Ki α-Glu, S. cer.
Excerpt: as §1, §2

[7] = target: T4, human β-glucocerebrosidase (GCase) (Homo sapiens, UniProt P04062); experiment: Ki determination with human β-glucocerebrosidase (GCase); assay type: biochemical; conditions: 37 °C, citric acid/phosphate buffer with Triton X-100 and taurocholic acid pH 7.0, 4-nitrophenyl glycopyranoside substrate; read-out: Ki β-Glu, Gaucher (GCase)
T4 construct: gift of Dr. Lorne Clarke, University of British Columbia
T4 sequence (P04062 40-536): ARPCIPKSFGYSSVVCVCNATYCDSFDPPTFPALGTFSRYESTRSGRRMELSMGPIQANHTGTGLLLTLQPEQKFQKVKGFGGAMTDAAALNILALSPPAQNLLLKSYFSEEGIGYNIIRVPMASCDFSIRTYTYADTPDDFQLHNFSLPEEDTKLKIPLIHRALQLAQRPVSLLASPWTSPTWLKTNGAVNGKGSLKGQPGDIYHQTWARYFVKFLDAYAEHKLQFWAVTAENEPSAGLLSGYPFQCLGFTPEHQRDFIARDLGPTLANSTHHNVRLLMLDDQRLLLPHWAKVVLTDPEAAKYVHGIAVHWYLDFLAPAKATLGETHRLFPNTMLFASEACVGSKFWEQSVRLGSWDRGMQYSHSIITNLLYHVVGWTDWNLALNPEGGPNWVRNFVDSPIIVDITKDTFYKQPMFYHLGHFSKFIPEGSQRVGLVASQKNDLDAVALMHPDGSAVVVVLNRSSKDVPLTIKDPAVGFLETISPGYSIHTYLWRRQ
Excerpt: as §1, §2

[8] = C-1 alkyl modified DIX analogues 15
[9] = D-xylo 1-C-iminosugar glycosides 14

Structure (SMILES): COC(=O)[C@H](CCCCN1C[C@@H](O)[C@H](O)[C@@H](O)C1)NS(=O)(=O)c1cccc2c(N(C)C)cccc12 [8, R^1 = NHdansyl, R^2 = OMe]
- pKi ([1]; N-modified DIX derivatives 8): 5.00

Structure (SMILES): COC(=O)[C@H](CCCCN1C[C@@H](O)[C@H](O)[C@@H](O)C1)NC(=O)[C@H](CCCCN1C[C@@H](O)[C@H](O)[C@@H](O)C1)NS(=O)(=O)c1cccc2c(N(C)C)cccc12 [8, R^1 = NHdansyl, R^2 =]
- pKi ([1]; N-modified DIX derivatives 8): 4.68

Structure (SMILES): COC(=O)[C@H](CCCCN1C[C@@H](O)[C@H](O)[C@@H](O)C1)N1C[C@@H](O)[C@H](O)[C@@H](O)C1 [8, R^1 = R^2 = OMe]
- pKi ([1]; N-modified DIX derivatives 8): 4.60

Structure (SMILES): N#CCCN1C[C@@H](O)[C@H](O)[C@@H](O)C1 [Compound 7a]
- pKi ([1]; N-modified DIX derivatives 7): 4.62

Structure (SMILES): COC(=O)CCN1C[C@@H](O)[C@H](O)[C@@H](O)C1 [Compound 7b]
- pKi ([1]; N-modified DIX derivatives 7): 4.46

Structure (SMILES): CCCCCC[C@H]1NC[C@@H](O)[C@H](O)[C@H]1O [Compound 10a]
- pIC50 [2]: 7.72

Structure (SMILES): CCCCCCO[C@H]1CNC[C@@H](O)[C@@H]1O [Compound 10b]
- pIC50 [2]: 8.05

Structure (SMILES): CCOC(=O)CC[C@H]1NC[C@@H](O)[C@H](O)[C@H]1O [Compound 19, (1R)-1-C-(Ethyloxycarbonylethyl)-1,5-dideoxy-1,5-imino-D-xylitol]
- pKi [3]: 5.68
- pKi [4]: < 3.00
- pKi [5]: < 3.00
- pKi [6]: < 3.00
- pKi [7]: 5.29

Structure (SMILES): O=C(CC[C@H]1NC[C@@H](O)[C@H](O)[C@H]1O)NCCc1c[nH]cn1 [Compound 23, (1R)-1-C-[(Imidazo-4-yl)ethylaminocarbonylethyl]-1,5-dideoxy-1,5-imino-D-xylitol]
- pKi [3]: 5.80
- pKi [4]: < 3.00
- pKi [5]: < 3.00
- pKi [6]: < 3.00
- pKi [7]: 5.96

Structure (SMILES): CC[C@@H]1[C@H](O)[C@@H](O)[C@H](O)CN1CCCCCC(=O)OC [Compound 26, (1R)-1-C-Ethyl-N-(methyloxycarbonylpentyl)-1,5-dideoxy-1,5-imino-D-xylitol]
- inhibition of β-Glu ABG, in words [3]: No detectable inhibition
- pKi [3]: < 3.00
- pKi [4]: < 3.00
- pKi [5]: < 3.00
- pKi [6]: < 3.00
- pKi [7]: 4.24

Structure (SMILES): CC[C@@H]1[C@H](O)[C@@H](O)[C@H](O)CN1CCCCCC(=O)NCCc1c[nH]cn1 [Compound 28, (1R)-1-C-Ethyl-N-[(imidazo-4-yl)ethylaminocarbonylpentyl]-1,5-dideoxy-1,5-imino-D-xylitol]
- inhibition of β-Glu ABG, in words [3]: No detectable inhibition
- pKi [3]: < 3.00
- pKi [4]: < 3.00
- pKi [5]: < 3.00
- pKi [6]: < 3.00
- pKi [7]: 5.39

Structure (SMILES): CCC[C@H]1NC[C@@H](O)[C@H](O)[C@H]1O [R = (CH2)2CH3]
- pKi [2, 8]: 5.89

Structure (SMILES): OCC[C@H]1NC[C@@H](O)[C@H](O)[C@H]1O [R = (CH2)2OH]
- pKi [2, 8]: 4.57

Structure (SMILES): CCCCCCCCC[C@H]1NC[C@@H](O)[C@H](O)[C@H]1O [R = C9H19]
- pKi ([2]; 1-C-alkyl imino-D-xylitols 9): 8.66

Structure (SMILES): CCCCCCCCCCCC[C@H]1NC[C@@H](O)[C@H](O)[C@H]1O [R = C12H25]
- pKi ([2]; 1-C-alkyl imino-D-xylitols 9): 7.51

Structure (SMILES): CC[C@H]1NC[C@@H](O)[C@H](O)[C@H]1O [R = CH2CH3]
- pKi [2, 8]: 5.64

Structure (SMILES): CC(C)[C@H]1NC[C@@H](O)[C@H](O)[C@H]1O [R = CH(CH3)2]
- pKi [2, 8]: 4.91

Structure (SMILES): N#C[C@H]1NC[C@@H](O)[C@H](O)[C@H]1O [R = CN]
- pKi [2, 8]: 4.47

Structure (SMILES): O[C@@H]1[C@@H](O)[C@@H](CCCCCOCC23CC4CC(CC(C4)C2)C3)NC[C@H]1O [R^1 = C-C, n=2, R^2 =]
- pKi [2, 9]: 9.00

Structure (SMILES): O[C@@H]1[C@@H](O)[C@@H](CC=CCCOCC23CC4CC(CC(C4)C2)C3)NC[C@H]1O [R^1 = C=C, n=2, R^2 =]
- pKi [2, 9]: 8.70

Reference: article PMC6534063, “Synthesis of modified 1,5-imino-D-xylitols as ligands for lysosomal β-glucocerebrosidase” (Monatshefte Fur Chemie, 2019)
